Where no end group is shown, it is not given here.
Key:
[1] = tested on: mitochondrial fusion and fission-related proteins; experiment: Total protein levels of mitochondrial dynamics proteins by western blot; assay type: cell-based
Procedure: Protein concentration was measured by protein assay dye reagents (Bio-rad). The protein was resuspended in Laemmli buffer, loaded on SDS-PAGE, and transferred onto nitrocellulose membranes. Membranes were probed with the indicated antibodies, followed by visualization with ECL. Representative blots have been cropped for presentation.

Drp1/ATAD3A = biological target: T1, Drp1/ATAD3A (Mus musculus, UniProt Q925I1); experiment: Immunoprecipitation of Drp1/ATAD3A binding in striatal extracts of treated HD R6/2 mice; assay type: in vivo; settings: striatal extracts of HD R6/2 mice, 1 mg/kg/day from 6 to 12 weeks
T1 construct: The total lysates of cells or mouse striatum were subject to IP analysis; endogenous in cells; host or cells: HdhQ7 / HdhQ111 mouse striatal cells; wild-type mouse striatal cells exposed to 3-NP
T1 sequence (Q925I1 2-591 limits assumed): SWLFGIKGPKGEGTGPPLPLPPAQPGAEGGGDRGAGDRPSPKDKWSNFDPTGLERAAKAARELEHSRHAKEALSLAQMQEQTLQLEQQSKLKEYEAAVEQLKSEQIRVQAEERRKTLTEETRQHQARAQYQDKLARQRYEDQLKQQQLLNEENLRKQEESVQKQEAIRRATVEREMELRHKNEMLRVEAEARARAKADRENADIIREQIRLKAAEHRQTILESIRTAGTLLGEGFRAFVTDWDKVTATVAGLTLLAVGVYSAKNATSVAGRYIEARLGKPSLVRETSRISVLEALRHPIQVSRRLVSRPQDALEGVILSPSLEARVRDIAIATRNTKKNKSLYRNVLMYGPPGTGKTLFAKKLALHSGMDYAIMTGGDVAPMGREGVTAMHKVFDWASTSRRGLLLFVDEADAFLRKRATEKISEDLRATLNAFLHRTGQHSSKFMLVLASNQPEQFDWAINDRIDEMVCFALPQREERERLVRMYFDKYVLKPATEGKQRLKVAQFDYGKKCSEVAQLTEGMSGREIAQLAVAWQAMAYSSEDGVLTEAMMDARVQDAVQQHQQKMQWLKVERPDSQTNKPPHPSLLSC
Procedure: Cells and mouse brain tissues were harvested and lysed in total lysis buffer ([…], pH 7.9, […], […], 1% Triton X-100, and protease inhibitor cocktail) for 30 mins on ice and centrifuged at 12,000×g for 10 min at 4° C. The supernatants were incubated with the indicated primary antibodies or control IgG (sc-2025 and sc-2027, Santa Cruz Biotechnology) overnight at 4° C., followed by incubation with protein A/G beads (sc-2003, Santa Cruz Biotechnology) for 2 h at 4° C. The immunoprecipitates were washed with lysis buffer three times for a total of 30 min and then subject to WB analysis.
(§1) Systemic peptide treatment in HD mice. All randomization and peptide treatments were prepared by an experimenter not associated with behavioral and neuropathology analysis. Male R6/2 mice (Tg) and their age-matched wild-type littermates (Wt) (6-week-old) were implanted with a 28-day osmotic pump (Alzet, Cupertino CA, Model 2004) containing TAT control peptide or DA1 peptide, which delivered peptides at a rate of 1 mg/kg/day. Male YAC128 mice (Tg) and their age-matched wild-type littermates (WT) were treated with TAT control peptide or DA1 peptide (1 mg/kg/day) by Alzet osmotic pump starting from the age of 3 months. The pump was replaced once every month.

YAC128 mice = experiment: Locomotion activity in YAC128 mice; assay type: in vivo, mouse; settings: 1 mg/kg/day from 3 to 12 months, effect from 6 until 12 months of age
Description: YAC128 [FVB-Tg(YAC128)53Hay/J, JAX stock number: 004938] breeders (FVB/N genetic background) were purchased from Jackson Laboratories. The YAC128 mice contain a full-length human huntingtin gene modified with a 128 CAG repeat expansion in exon 1. The mice were mated, bred, and genotyped in the animal facility of Case Western Reserve University. Male mice at the ages of 2, 3, 6, 9, and 12 months were used in the study.
as §1
Gross locomotor activity was assessed in R6/2 mice and age-matched wild-type littermates at the ages of 12 weeks, and in YAC128 mice and age-matched wildtype littermates at the ages of 2, 3, 6, 9, and 12 months. […] Distance moved, horizontal and vertical activities were recorded. […]

[2] = tested on: neurons derived from HD patients; experiment: Cell death by LDH release in neurons derived from iPS cells; assay type: cell-based, human
Procedure: iPS cells from a normal subject and a HD patient (carrying 41 CAG repeats) were differentiated into neurons using the protocol from our previous studies. Briefly, the iPS cells were plated onto 6-well plates precoated with 2.5% Matrigel and allowed to reach 90% confluence in feeder-free medium. For the first 10 days, the cells were treated with SB431542 (10 μM; Tocris Bioscience) and Noggin (100 ng/ml) in Neural Media (NM) containing Neurobasal and DMEM (1:1), B-27 supplement minus vitamin A (50×, Invitrogen), N2 supplement (100×, Invitrogen), GlutaMax (Invitrogen, 100×), FGF2 ([…]) and EGF ([…]), and 100 units/ml penicillin and 100 μg/ml streptomycin). For the next 10 days, the cells were treated with human recombinant Sonic hedgehog (SHH, 200 ng/ml), DKK1 (100 ng/ml) and BDNF (20 ng/ml), and 10 μM Y27632 (Sigma) in neuronal differentiation medium containing Neurobasal and DMEM (1:3), B27, N2, GlutaMax, and PS. Cells were then switched to treatment with BDNF (20 ng/ml), ascorbic acid (200 μM, Sigma-Aldrich), cAMP (0.5 mM, Sigma-Aldrich), and Y27632 (10 μM) in neuronal differentiation medium. All growth factors were purchased from PeproTech (Rocky Hill, NJ, USA). […]
Cells were treated as described, and cell death was determined by using Cytotoxicity Detection Kit (LDH) according to protocols recommended by the manufacturer (Roche).

Substance: YGRKKRRQRRRGGEDKRKT-NH2 [DA1, YGRKKRRQRRR-GG-EDKRKT-NH2]
- other mitochondrial fusion and fission-related proteins (total protein levels) [1]: did not affect
- binding of Drp1/ATAD3A (Drp1/ATAD3A): significantly reduced
- general movement activity (YAC128 mice): improved
- neuronal survival ([2]; cells derived from iPS cells of normal subject): no observed effects
- cell death (LDH release) ([2]; neurons derived from HD patients, BDNF withdrawal for 24 h): decreased
